Assay results taken from patent publication US20230007838A1, “FUNCTIONALIZED LONG-CHAIN HYDROCARBON MONO- AND DI-CARBOXYLIC ACIDS AND THEIR USE FOR THE PREVENTION OR TREATMENT OF DISEASE” (ESPERVITA THERAPEUTICS, INC., priority 2019, published 2023).

Experiments:
[1] = system: Hep3B cells; assay: Cancer cell proliferation (PrestoBlue) in Hep3B cells; assay type: cell-based, human; conditions: Hep3B (h), 72 hours
Protocol: (§1) Human liver cancer cells Hep3B and murine liver cancer cells Hepa1-6, respectively, were seeded at a cell density of 3000 cells/well in 96-well plates using either Eagle's Minimum Essential Medium (Corning) for Hep3B or Dulbecco's Modified Eagle's Medium (DMEM) High Glucose (Gibco) for Hepa1-6 cells, supplemented with 10% fetal bovine serum (FBS, Gibco) and 1% Antibiotic-Antimycotic solution (Thermo-Fisher Scientific). The next day, the cells were treated with 0 (vehicle control), 0.1, 0.5, 1, 5, 10, 30, 50 or 100 μM Compound I-32, I-61, I-1, or III-1 (final concentration of DMSO 0.1%) and were allowed to grow for 72 hours at 37° C. On day 5, 10 μl of PrestoBlue™ Cell Viability Reagent (Invitrogen) was added to each well and the plate was incubated at 37° C. for an additional 1-2 hours.

[2] = system: Hepa1-6 cells; assay: Cancer cell proliferation (PrestoBlue) in Hepa1-6 cells; assay type: cell-based, murine; conditions: Hepa1-6 (m), 72 hours
Protocol: as §1

[3] = system: Hep3B cells; assay: Clonogenicity (colony formation) in Hep3B liver cancer cells; assay type: cell-based; conditions: Homo sapiens, 168 h, 7 days treatment
Protocol: (§2) Liver cancer cell lines Hep3B (human) and Hepa1-6 (murine) were maintained in either Eagle's Minimum Essential Medium (Corning) for Hep3B cells or High Glucose DMEM (Gibco) for Hepa1-6 cells, supplemented with 10% FBS (Gibco) and 1% Antibiotic-Antimycotic (Thermo-Fisher Scientific). Each cell line was seeded at 1000 cells/well in 12-well plates. The next day, the media were replaced, and cells were treated with 0 (vehicle control, 0.1% DMSO), 1, 5, 10, 30, 50, or 100 μM Compound I-32, I-61, I-1, or III-1 (final concentration of DMSO 0.1%) for 7 days. On day 9, the media were removed, and cells were fixed with 10% formalin (500 μl) for 10 minutes at room temperature, washed with 1×PBS and stained with crystal violet. After 10 minutes the excess stain was removed by rinsing three times with tap water. The plates were allowed to dry overnight, then the number of colonies (>50 cells) in each well were counted using light microscopy as described previously by Villiani L. A., et al.

[4] = system: primary hepatocytes (m); assay: De novo lipogenesis (DNL) in mouse primary hepatocytes; assay type: cell-based; conditions: Hepatocyte
[5] = system: Hepa1-6 cells; assay: Clonogenicity (colony formation) in Hepa1-6 liver cancer cells; assay type: cell-based, murine; conditions: Mus musculus, 168 h; Hepa1-6 (m), 7 days treatment
Protocol: as §2

[6] = system: Hep3B cells; assay: Combination study with sorafenib or lenvatinib, proliferation in Hep3B cells; conditions: for Synergistic or additive effect on antiproliferative activity (CompuSyn analysis): in the presence of sorafenib or lenvatinib, FIGS. 8A-8D; for IC50: read-out: IC50 for inhibition of proliferation
Protocol: (§3) Hep3B (supplied by ATCC) or Hepa1-6 (supplied by ATCC) cells were seeded in 96-well plates at a density of 500 cells/well with complete media. […] Then, cells were incubated in an incubator for 72 h. On day 5, 10 μl of presto blue (Invitrogen, cat # A13261) cell viability reagent was added in each 96-well plate and incubated at 37° C. for 1-2 h. After incubation, fluorescence was measured with an excitation/emission wavelength of 560/590 nm. […] Proliferation IC50 values were calculated using a non-linear regression model in Graph pad Prism 8.

[7] = system: Hepa1-6 cells; assay: Combination study with sorafenib or lenvatinib, proliferation in Hepa1-6 cells
Protocol: as §3

SMILES | Cancer Cell Proliferation % reduction vs control at 100 μM, Mean (Standard Deviation) [1] | Cancer Cell Proliferation % reduction vs control at 100 μM, Mean (Standard Deviation) [2] | IC50 [3] | IC50 [4] | IC50 [5] | Synergistic or additive effect on antiproliferative activity (CompuSyn analysis) ([6]; Hep3B cells) | IC50 ([7]; Mus musculus, Hepa1-6, read-out: IC50 for inhibition of proliferation) | IC50 ([6]; Homo sapiens, Hep3B) | IC50 ([7]; read-out: IC50 for inhibition of proliferation, Hepa1-6 cells, in the absence of a compound of the invention, separate experiment (data not shown)) | IC50 ([6]; Hep3B cells, in the absence of a compound of the invention, separate experiment (data not shown))
CC(C)(CCCCc1ccc(CCCCC(C)(C)C(=O)O)cc1)C(=O)O [Compound I-1, 6,6′-(1,4-phenylene)bis(2,2-dimethylhexanoic acid)] | 41.8 (8.4) % | 25.9 (5.7) % | 53.9 µM | 12.1 µM | 55.6 µM |  |  |  |  | 
CC(C)(CCCCc1cccc(CCCCC(C)(C)C(=O)O)c1)C(=O)O [Compound I-32, 6-[3-(5-Carboxy-5-methylhexyl)-phenyl]-2,2-dimethylhexanoic acid] | 30.8 (2.6) % | 18.6 (3.1) % | 41.7 µM | 8.3 µM | 52.3 µM | synergistic inhibition |  |  |  | 
CC(C)(CCCc1ccccc1CCCC(C)(C)C(=O)O)C(=O)O [Compound I-61, 5,5′-(1,2-Phenylene)bis(2,2-dimethylpentanoic acid)] | 35.7(5.8) % | 21.8 (8.9) % | 57.3 µM |  | 73.4 µM | synergistic inhibition |  |  |  | 
CC(C)(CCCc1ccc(CCCC(C)(C)C(=O)O)cc1)C(=O)O [III-1, 1,4-Bis(4-carboxy-4-methylpentyl)benzene] | 29.7 (6.2) % | 15.7 (6.7) % | 55.6 µM |  | 61 µM |  |  |  |  | 
COc1cc2nccc(Oc3ccc(NC(=O)NC4CC4)c(Cl)c3)c2cc1C(N)=O [lenvatinib, reference compound] |  |  |  |  |  |  | 30 µM | 0.5 µM |  | 
CNC(=O)c1cc(Oc2ccc(NC(=O)Nc3ccc(Cl)c(C(F)(F)F)c3)cc2)ccn1 [sorafenib, reference compound] |  |  |  |  |  |  |  |  | 5 µM | 3 µM
